Earlier results, collected in PMC3969558 (Molecular Biology and Evolution, 2013).
No end group written: not given here.

Legend:
[1] = system: steroidal receptors (nuclear receptors similar to the sex steroid receptors); settings: ref Paris et al. 2008; Katsu et al. 2010
amphioxus GnRHR3 = settings: ref Tello and Sherwood 2009

Compound: C[C@]12CC[C@@H]3c4ccc(O)cc4CC[C@H]3[C@@H]1CC[C@@H]2O [estradiol]
- binding to amphioxus steroidal receptor [1]: has been shown to bind one of the steroidal receptors

Compound: vertebrate GnRH2: vertebrate GnRH2, present throughout the vertebrates, 10 amino acids (QHWSHGWYPG; ends and bridges not checked; UniProt O43555 24-33, looked up)
- activation of GnRHR3 (earlier study) (amphioxus GnRHR3): activated amphioxus GnRHR3 within the vertebrate physiological range
